The values below come from US20210198277A1, “AMINE-SUBSTITUTED ARYL OR HETEROARYL COMPOUNDS” (Epizyme, Inc., priority 2016, published 2021).

For one assay, the target named is T1, human EHMT2 913-1193 (Homo sapiens, UniProt Q96KQ7).
T1 construct: recombinant purified human EHMT2 913-1193, Viva; purchased Viva
T1 sequence (Q96KQ7 913-1193): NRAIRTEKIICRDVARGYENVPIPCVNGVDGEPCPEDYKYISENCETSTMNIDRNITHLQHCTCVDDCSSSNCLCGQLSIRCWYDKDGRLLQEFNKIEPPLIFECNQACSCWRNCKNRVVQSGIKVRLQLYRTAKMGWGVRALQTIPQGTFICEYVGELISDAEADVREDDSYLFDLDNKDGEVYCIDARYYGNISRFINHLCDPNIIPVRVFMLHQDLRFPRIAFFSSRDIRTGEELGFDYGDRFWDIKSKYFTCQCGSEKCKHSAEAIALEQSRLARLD
Put plainly: EHMT2 enzyme assay on histone peptide substrate (EHMT2 PEP). Particulars: Table III; read-out: EHMT2 PEP (IC50 μM). It is filed as biochemical. A digest of the protocol:
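Radiometric methyltransferase assay: 0.031 nM EHMT2 913-1193 preincubated 30 min with compound (10-point 3-fold series, top final 50 μM, 2% DMSO) in 20 mM Bicine pH 7.5, 1 mM TCEP. Biotinylated histone peptide methylated with ^3H-SAM for 60 min at room temperature, quenched with unlabeled SAM, captured on streptavidin Flashplates and counted.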

For a further assay, the target named is T2, EHMT2 (Homo sapiens, UniProt Q96KQ7).
T2 construct: host or cells: MDA-MB-231
T2 sequence (Q96KQ7 1-1210): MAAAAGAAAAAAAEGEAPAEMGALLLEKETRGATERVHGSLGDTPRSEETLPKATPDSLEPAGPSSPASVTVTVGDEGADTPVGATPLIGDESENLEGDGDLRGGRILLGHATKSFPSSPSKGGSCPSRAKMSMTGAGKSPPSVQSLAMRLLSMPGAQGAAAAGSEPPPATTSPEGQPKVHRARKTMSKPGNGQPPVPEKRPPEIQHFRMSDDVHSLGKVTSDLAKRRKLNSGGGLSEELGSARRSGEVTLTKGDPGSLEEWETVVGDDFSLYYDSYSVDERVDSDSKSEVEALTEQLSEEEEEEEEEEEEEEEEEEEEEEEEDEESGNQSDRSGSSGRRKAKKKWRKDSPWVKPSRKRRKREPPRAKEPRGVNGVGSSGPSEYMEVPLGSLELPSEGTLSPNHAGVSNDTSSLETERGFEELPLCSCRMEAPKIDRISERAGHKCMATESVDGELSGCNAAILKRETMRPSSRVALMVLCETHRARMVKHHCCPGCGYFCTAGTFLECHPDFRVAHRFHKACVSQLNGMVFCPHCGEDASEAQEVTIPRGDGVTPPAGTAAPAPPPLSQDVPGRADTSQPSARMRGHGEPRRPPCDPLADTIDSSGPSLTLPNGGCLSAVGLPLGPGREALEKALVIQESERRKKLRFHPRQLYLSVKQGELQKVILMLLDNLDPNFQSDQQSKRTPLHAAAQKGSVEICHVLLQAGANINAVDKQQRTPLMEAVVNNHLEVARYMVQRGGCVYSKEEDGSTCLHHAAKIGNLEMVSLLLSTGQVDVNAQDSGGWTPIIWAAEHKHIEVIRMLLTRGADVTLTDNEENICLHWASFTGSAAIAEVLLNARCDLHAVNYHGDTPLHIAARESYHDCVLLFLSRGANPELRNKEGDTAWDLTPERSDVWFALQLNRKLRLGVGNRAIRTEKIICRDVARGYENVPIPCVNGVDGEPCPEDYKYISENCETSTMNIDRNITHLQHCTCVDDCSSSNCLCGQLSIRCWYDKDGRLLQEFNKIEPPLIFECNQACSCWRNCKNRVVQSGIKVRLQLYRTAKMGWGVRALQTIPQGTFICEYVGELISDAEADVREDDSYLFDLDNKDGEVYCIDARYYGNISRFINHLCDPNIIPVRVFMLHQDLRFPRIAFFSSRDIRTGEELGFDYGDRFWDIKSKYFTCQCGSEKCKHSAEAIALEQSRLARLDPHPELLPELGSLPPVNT
Nature of the assay: MDA-MB-231 H3K9me2 in-cell Western assay (EHMT2 ICW). It is filed as cell-based. The note with it: Table III; MDA-MB-231 H3K9me2 in-cell Western; read-out: EHMT2 ICW (IC50 μM). An excerpt: RPMI/Glutamax medium, Penicillin-Streptomycin, Heat Inactivated Fetal Bovine Serum, and D-PBS were purchased from Life Technologies (Grand Island, N.Y., USA). Odyssey blocking buffer, 800CW goat anti-mouse IgG (H+L) antibody, and Licor Odyssey Infrared Scanner were purchased from Licor Biosciences, Lincoln, Nebr., USA. […] 16% Paraformaldehyde was purchased from Electron Microscopy Sciences, Hatfield, Pa., USA).MDA-MB-231 cells were maintained in complete growth medium (RPMI supplemented with 10% v/v heat inactivated fetal bovine serum) and cultured at 37° C. under 5% CO2. UNC0638 was purchased from Sigma-Aldrich (St. Louis, Mo., USA).
Compound (100 nL) was added directly to 384-well cell plate. MDA-MB-231 cells (ATCC) were seeded in assay medium (RPMI/Glutamax supplemented with 10% v/v heat inactivated fetal bovine serum and 1% Penicillin/Streptomycin, Life Technologies) at a concentration of 3,000 cells per well to a Poly-D-Lysine coated 384-well cell culture plate with 50 μL per well. […] Plates were incubated at room temperature for 30 minutes and then incubated at 37° C., 5% CO2 for additional 48 hours. After the incubation, 50 μL per well of 8% paraformaldehyde (Electron Microscopy Sciences) in PBS was added to the plates and incubated at room temperature for 20 minutes. […] Next, 60 μL per well of Odyssey blocking buffer (Licor Biosciences) was added to each plate and incubated for 1 hour at room temperature. Blocking buffer was removed and 20 μL of monoclonal primary antibody α-H3K9me2 (Abcam) diluted 1:800 in Odyssey buffer with 0.1% Tween 20 (v/v) were added and plates were incubated overnight (16 hours) at 4° C. Plates were washed 5 times with 100 μL per well of wash buffer. Next 20 μL per well of secondary antibody was added (1:500 800CW donkey anti-mouse IgG (H+L) antibody (Licor Biosciences), 1:1000 DRAQ5 (Cell Signaling Technology) in Odyssey buffer with 0.1% Tween 20 (v/v)) and incubated for 1 hour at room temperature. The plates were washed 5 times with 100 μL per well wash buffer then 2 times with 100 μL per well of water. Plates were allowed to dry at room temperature then imaged on a Licor Odyssey Infrared Scanner (Licor Biosciences) which measured integrated intensity at 700 nm and 800 nm wavelengths. Both 700 and 800 channels were scanned.
First, the ratio for each well was determined by:
The average of the ratio values for each well was calculated and used to determine the percent inhibition for each test well in the plate. Control compound was serially diluted three-fold in DMSO for a total of 10 test concentrations beginning at 1 μM. Percent inhibition was calculated as: […]
IC50 curves were generated using triplicate wells per concentration of compound. […] IC50 values were calculated using a non-linear regression (variable slope-four parameter fit model) with by the following formula: […]

What is called IC50 is the concentration needed to halve the response being measured.

Turning to `CNc1ccnc(Nc2ccc(OC)c(OCCCN3CCC3)c2)n1` [Compound 281], the IC50 is < 0.1 µM on human EHMT2 913-1193 and 0.1 to 1 µM at EHMT2.

Consider `CNc1ccnc(Nc2ccc(OC)c(OCCCN3CCCC3)c2)n1` [Compound 399], for which the concentration for half-maximal inhibition (IC50) at EHMT2 is 0.1 to 1 µM.
